Measured values as given in PubChem BioAssay AID330 (DTP/NCI, 2004).
Several values for one entry are separate records, joined by “and”; a condition that tells them apart may be missing. Equal entries are not always repeated. Inconclusive results and toxic doses are left out. The calls were made as follows: active = survival T/C of 150% or more; inactive = T/C below 125% in these data.

Test system: P388 leukemia ip, CD2F1 mice, survival T/C
Assay: NCI In Vivo Anticancer Drug Screen. Data for tumor model P388 Leukemia (intraperitoneal) in CD2F1 (CDF1) mice
Conditions: endpoint: median survival time, higher = longer survival
Procedure, shortened: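 Mice carrying the transplanted tumor received test compound or vehicle. Survival was recorded in each group, and the value is the treated-group measurement divided by that of the vehicle-treated control group.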

[1] = dose: 100.0 mg/kg/injection, schedule: Q01DX001 (ip), vehicle: saline with Tween-80
[2] = dose: 200.0 mg/kg/injection, schedule: Q01DX001 (ip), vehicle: saline with Tween-80
[3] = dose: 50.0 mg/kg/injection, schedule: Q01DX009 (ip), vehicle: saline
[4] = dose: 100.0 mg/kg/injection, schedule: Q01DX009 (ip), vehicle: saline
[5] = dose: 200.0 mg/kg/injection, schedule: Q01DX009 (ip), vehicle: saline
[6] = dose: 12.5 mg/kg/injection, schedule: Q01DX009 (ip), vehicle: saline
[7] = dose: 25.0 mg/kg/injection, schedule: Q01DX009 (ip), vehicle: saline
[8] = dose: 60.0 mg/kg/injection, schedule: Q01DX005 (ip), vehicle: saline with Tween-80
[9] = dose: 120.0 mg/kg/injection, schedule: Q01DX005 (ip), vehicle: saline with Tween-80
[10] = dose: 240.0 mg/kg/injection, schedule: Q01DX005 (ip), vehicle: saline with Tween-80

Measured: T/C

Cn1ncc2c(Nc3ccc(F)cc3)c3ccccc3nc21
inactive: dose: 60.0 mg/kg/injection, schedule: Q01DX005 (ip), vehicle: Klucel (hydroxypropylcellulose) (HPC) 97 % of control | dose: 120.0 mg/kg/injection, schedule: Q01DX005 (ip), vehicle: Klucel (hydroxypropylcellulose) (HPC) 95 % of control | dose: 240.0 mg/kg/injection, schedule: Q01DX005 (ip), vehicle: Klucel (hydroxypropylcellulose) (HPC) 90 % of control

O=C(O)C1(NO)CCCC1
inactive: dose: 100.0 mg/kg/injection, schedule: Q04DX003 (ip), vehicle: saline 100 % of control | dose: 200.0 mg/kg/injection, schedule: Q04DX003 (ip), vehicle: saline 118 % of control | dose: 400.0 mg/kg/injection, schedule: Q04DX003 (ip), vehicle: saline 95 % of control

CC(=O)OC(C)CCCCCCCCCCCCCCC1=C(C)C(=O)OC1=O (stereo unspecified)
inactive: dose: 25.0 mg/kg/injection, schedule: Q01DX005 (ip), vehicle: Klucel (hydroxypropylcellulose) (HPC) 99 % of control | dose: 50.0 mg/kg/injection, schedule: Q01DX005 (ip), vehicle: Klucel (hydroxypropylcellulose) (HPC) 106 % of control | dose: 100.0 mg/kg/injection, schedule: Q01DX005 (ip), vehicle: Klucel (hydroxypropylcellulose) (HPC) 108 % of control | dose: 200.0 mg/kg/injection, schedule: Q01DX005 (ip), vehicle: Klucel (hydroxypropylcellulose) (HPC) 105 % of control | dose: 400.0 mg/kg/injection, schedule: Q01DX005 (ip), vehicle: Klucel (hydroxypropylcellulose) (HPC) 101 % of control

COc1ccc(C(O)C2c3c(cc4c(c3OC)OCO4)CCN2C)c(CO)c1OC (stereo unspecified)
inactive: dose: 12.5 mg/kg/injection, schedule: Q01DX001 (ip), vehicle: Klucel (hydroxypropylcellulose) (HPC) 88 % of control | dose: 25.0 mg/kg/injection, schedule: Q01DX001 (ip), vehicle: Klucel (hydroxypropylcellulose) (HPC) 88 % of control | dose: 50.0 mg/kg/injection, schedule: Q01DX001 (ip), vehicle: Klucel (hydroxypropylcellulose) (HPC) 94 % of control

O=C(N/N=C/c1ccco1)C(=O)Nc1ccc(Cl)c([N+](=O)[O-])c1
inactive: dose: 50.0 mg/kg/injection, schedule: Q01DX005 (ip), vehicle: saline with Tween-80 91 % of control | dose: 100.0 mg/kg/injection, schedule: Q01DX005 (ip), vehicle: saline with Tween-80 89 % of control | dose: 200.0 mg/kg/injection, schedule: Q01DX005 (ip), vehicle: saline with Tween-80 105 % of control

Cc1ccc(NC(=O)CCC(=O)NS(C)(=O)=O)cc1
inactive: [1] 94 % of control | [2] 94 % of control | dose: 400.0 mg/kg/injection, schedule: Q01DX001 (ip), vehicle: saline with Tween-80 95 % of control

C[Si](C)(C)O/C=C1/CCOC1=O
inactive: [3] 100 % of control and 87 % of control | [4] 98 % of control and 104 % of control | [5] 120 % of control | dose: 300.0 mg/kg/injection, schedule: Q01DX009 (ip), vehicle: saline 114 % of control

CC1(O)CC23CC1CCC2(C)C12CCCC(C)(C(=O)O1)C2CC3O (stereo unspecified)
inactive: dose: 12.5 mg/kg/injection, schedule: Q01DX009 (ip), vehicle: Klucel (hydroxypropylcellulose) (HPC) 99 % of control | dose: 25.0 mg/kg/injection, schedule: Q01DX009 (ip), vehicle: Klucel (hydroxypropylcellulose) (HPC) 100 % of control | dose: 50.0 mg/kg/injection, schedule: Q01DX009 (ip), vehicle: Klucel (hydroxypropylcellulose) (HPC) 108 % of control | dose: 100.0 mg/kg/injection, schedule: Q01DX009 (ip), vehicle: Klucel (hydroxypropylcellulose) (HPC) 103 % of control | dose: 200.0 mg/kg/injection, schedule: Q01DX009 (ip), vehicle: Klucel (hydroxypropylcellulose) (HPC) 100 % of control

C/C(=N/NS(=O)(=O)c1ccc(C)cc1)C(=NO)/C(C)=N\NS(=O)(=O)c1ccc(C)cc1
inactive: [3] 92 % of control | [4] 100 % of control | [5] 101 % of control

Nc1ccc2c(c1)Cc1cc(NC=O)ccc1-2
inactive: [6] 94 % of control | [7] 91 % of control | [3] 91 % of control | [4] 91 % of control

Cc1cccnc1-n1c(N)cc(=O)[nH]c1=S
inactive: dose: 50.0 mg/kg/injection, schedule: Q01DX001 (ip), vehicle: saline with Tween-80 100 % of control | [1] 100 % of control | [2] 86 % of control

CNC(=S)N/N=C/c1ccc([N+](=O)[O-])s1
inactive: dose: 6.25 mg/kg/injection, schedule: Q01DX009 (ip), vehicle: saline with Tween-80 99 % of control | dose: 12.5 mg/kg/injection, schedule: Q01DX009 (ip), vehicle: saline with Tween-80 89 % of control | dose: 25.0 mg/kg/injection, schedule: Q01DX009 (ip), vehicle: saline with Tween-80 88 % of control

CCOC(=O)c1cc(/C=C/c2ccc(Cl)cc2)on1
inactive: [8] 91 % of control | [9] 90 % of control

CCCCNCCCNCCCNC(=O)c1csc(-c2csc(CCNC(=O)C(NC(=O)C(C)C(O)C(C)NC(=O)C(NC(=O)c3nc(C(CC(N)=O)NCC(N)C(N)=O)nc(N)c3C)C(OC3OC(CO)C(O)C(O)C3OC3OC(CO)C(O)C(OC(N)=O)C3O)c3cnc[nH]3)C(C)O)n2)n1 (stereo unspecified)
inactive: dose: 0.62 mg/kg/injection, schedule: Q01DX009 (ip), vehicle: water 104 % of control and 105 % of control | dose: 1.25 mg/kg/injection, schedule: Q01DX009 (ip), vehicle: water 104 % of control and 105 % of control | dose: 2.5 mg/kg/injection, schedule: Q01DX009 (ip), vehicle: water 104 % of control and 110 % of control and 117 % of control | dose: 5.0 mg/kg/injection, schedule: Q01DX009 (ip), vehicle: water 108 % of control and 117 % of control and 120 % of control | dose: 10.0 mg/kg/injection, schedule: Q01DX009 (ip), vehicle: water 104 % of control | dose: 20.0 mg/kg/injection, schedule: Q01DX009 (ip), vehicle: water 105 % of control | dose: 40.0 mg/kg/injection, schedule: Q01DX009 (ip), vehicle: water 89 % of control

O/N=C/C=N/O.O/N=C/C=N/O.[Ni]
inactive: dose: 0.78 mg/kg/injection, schedule: Q01DX009 (ip), vehicle: saline 100 % of control | dose: 1.56 mg/kg/injection, schedule: Q01DX009 (ip), vehicle: saline 98 % of control | dose: 3.13 mg/kg/injection, schedule: Q01DX009 (ip), vehicle: saline 91 % of control | dose: 6.25 mg/kg/injection, schedule: Q01DX009 (ip), vehicle: saline 97 % of control | [6] 100 % of control

O=C(CNC(c1ccccc1)(c1ccccc1)c1ccccc1)OC(c1ccccc1)c1ccccc1
inactive: dose: 50.0 mg/kg/injection, schedule: Q01DX009 (ip), vehicle: saline with Tween-80 104 % of control | dose: 100.0 mg/kg/injection, schedule: Q01DX009 (ip), vehicle: saline with Tween-80 118 % of control | dose: 200.0 mg/kg/injection, schedule: Q01DX009 (ip), vehicle: saline with Tween-80 90 % of control

CC(CCCCCCCC1CC(OS(=O)(=O)O)CCCCCCCCCCCC(OS(=O)(=O)O)CC(OS(=O)(=O)O)CCCCCCCCCCCCCC(=O)O1)OS(=O)(=O)O (stereo unspecified) (tested in a mixture with another compound)
inactive: dose: 25.0 micrograms/kg/injection, schedule: Q01DX005 (ip), vehicle: Klucel (hydroxypropylcellulose) (HPC) 98 % of control | dose: 50.0 micrograms/kg/injection, schedule: Q01DX005 (ip), vehicle: Klucel (hydroxypropylcellulose) (HPC) 103 % of control | dose: 100.0 micrograms/kg/injection, schedule: Q01DX005 (ip), vehicle: Klucel (hydroxypropylcellulose) (HPC) 97 % of control | dose: 200.0 micrograms/kg/injection, schedule: Q01DX005 (ip), vehicle: Klucel (hydroxypropylcellulose) (HPC) 97 % of control

CNC1=CC(=O)c2c(c3cc(O)ccc3n2C)C1=O
inactive: [6] 103 % of control | [7] 103 % of control | [3] 103 % of control and 87 % of control | [5] 104 % of control

O=C1c2ccccc2-c2cc3ccccc3c(=O)n21
inactive: [8] 95 % of control | [9] 91 % of control | [10] 89 % of control

C=C1CCN(c2ccc(Br)cc2)C1=O
inactive: dose: 4.0 mg/kg/injection, schedule: Q01DX009 (ip), vehicle: saline + alcohol 104 % of control | dose: 8.0 mg/kg/injection, schedule: Q01DX009 (ip), vehicle: saline + alcohol 92 % of control | dose: 16.0 mg/kg/injection, schedule: Q01DX009 (ip), vehicle: saline + alcohol 98 % of control | dose: 32.0 mg/kg/injection, schedule: Q01DX009 (ip), vehicle: saline + alcohol 91 % of control | dose: 64.0 mg/kg/injection, schedule: Q01DX009 (ip), vehicle: saline + alcohol 98 % of control

O=C(CNC(=O)Nc1cccc([N+](=O)[O-])c1)NNC(=O)Nc1ccccc1F
inactive: [8] 101 % of control | [9] 101 % of control | [10] 99 % of control

N#CC1(C#N)OC1(C#N)c1ccccc1 (stereo unspecified)
inactive: dose: 3.0 mg/kg/injection, schedule: Q01DX009 (ip), vehicle: saline with Tween-80 100 % of control | dose: 6.0 mg/kg/injection, schedule: Q01DX009 (ip), vehicle: saline with Tween-80 100 % of control | dose: 12.0 mg/kg/injection, schedule: Q01DX009 (ip), vehicle: saline with Tween-80 100 % of control
